This is an account of results in US7851573B2, “Aqueous polytetrafluoroethylene emulsion, polytetrafluoroethylene fine powder and porous material obtained therefrom” (Asahi Glass Company, Limited, priority 2005, dated 2010).

Data set [1] can be described thus: 1-octanol/water partition coefficient (LogPOW) by HPLC, OECD Test Guideline 117. In kind it is physicochemical. To be noted: for LogPOW: HPLC method, ODS column, acetonitrile/0.6 mass % HClO4 aq. 1/1, 40° C., calibration with C7-C10 carboxylic acids; for bioaccumulation potential / accumulation in a living organism: judged from the LogPOW value compared to APFO. As for the experimental part: In accordance with OECD Test Guideline 117, 1-octanol/water partition coefficient (LogPOW) of a fluorinated emulsifier was measured by using HPLC (high performance liquid chromatography).
Conditions for the measurement were as follows: column: TOSOH ODS-120T column ((φ 4.6 mm×250 mm), eluent: acetonitrile/0.6 mass % of HClO4 aqueous solution=1/1 (vol/vol %), flow rate: 1.0 mL/minute, sample amount: 300 μL, column temperature: 40° C., and detection light: UV 210 nm (WO2005-42593).
HPLC was carried out on standard substances (heptanoic acid, octanoic acid, nonanoic acid and decanoic acid) having known 1-octanol/water partition coefficients, and a calibration curve was prepared from the respective elution times and octanol/water partition coefficients of the respective standard substances. Based on this calibration curve, a value of partition coefficient (LogPOW) between 1-octanol and water was calculated from the elution time by HPLC of the fluorinated emulsifier.
Further, in general, in order to judge whether or not a chemical substance is apt to be accumulated in a living organism, a testing method for measurement of a partition coefficient (LogPOW) between 1-octanol and water, is stipulated. As the testing method, in addition to “Partition Coefficient (1-octanol/water) Shake Flask Method” as stipulated in OECD test guideline 107 and in Japanese Industrial Standards Z 7260-107 (2000), a HPLC method (high-performance liquid chromatography) as stipulated and published in OECD Test Guideline 117, is used. A compound having a large partition coefficient value has a large tendency for bioaccumulation, and a compound having a small value means a small tendency for bioaccumulation. In a case where the LogPOW value is less than 3.5, it is considered proper to judge that it is not a high-concentration, and bioaccumulation is also considered to be small.

The conditions of data set [2]: background art statement, no method given; cited from earlier work.

On to `N.O=C(O)C(F)(F)C(F)(F)C(F)(F)C(F)(F)C(F)(F)C(F)(F)C(F)(F)F` [CF3(CF2)6COONH4, ammonium perfluorooctanoate], for which the LogPOW in data set [1] was 3.67. In addition, the bioaccumulation potential result in data set [2] is recorded as “high”.

Consider `N.O=C(O)C(F)(OC(F)(F)C(C(F)(F)F)C(F)(F)C(F)(F)C(F)(F)F)C(F)(F)F` (stereo not shown) [CF3CF2CF2C(CF3)CF2OCF(CF3)COONH4], for which, in data set [2], the bioaccumulation potential result is “higher bioaccumulation potential than APFO”.

With `N.O=C(O)C(F)(F)OC(F)(F)C(F)(F)OC(F)(F)C(F)(F)F` [CF3CF2OCF2CF2OCF2COONH4], in data set [1], the LogPOW turned out to be 3.13 and the “bioaccumulation potential / accumulation in a living organism” value is given as “low”.

Consider `N.O=C(O)C(F)(OC(F)(F)C(F)(OC(F)(F)C(F)(F)F)C(F)(F)F)C(F)(F)F` (stereo not shown) [CF3CF2OCF(CF3)CF2OCF(CF3)COONH4], for which, in data set [1], the LogPOW was 4.03 and the “bioaccumulation potential / accumulation in a living organism” value is “high”.
